The record followed here is patent US7943618B2, “Btk protein kinase inhibitors” (Roche Palo Alto LLC, priority 2007, dated 2011).

T1 sequence (Q06187 whole entry): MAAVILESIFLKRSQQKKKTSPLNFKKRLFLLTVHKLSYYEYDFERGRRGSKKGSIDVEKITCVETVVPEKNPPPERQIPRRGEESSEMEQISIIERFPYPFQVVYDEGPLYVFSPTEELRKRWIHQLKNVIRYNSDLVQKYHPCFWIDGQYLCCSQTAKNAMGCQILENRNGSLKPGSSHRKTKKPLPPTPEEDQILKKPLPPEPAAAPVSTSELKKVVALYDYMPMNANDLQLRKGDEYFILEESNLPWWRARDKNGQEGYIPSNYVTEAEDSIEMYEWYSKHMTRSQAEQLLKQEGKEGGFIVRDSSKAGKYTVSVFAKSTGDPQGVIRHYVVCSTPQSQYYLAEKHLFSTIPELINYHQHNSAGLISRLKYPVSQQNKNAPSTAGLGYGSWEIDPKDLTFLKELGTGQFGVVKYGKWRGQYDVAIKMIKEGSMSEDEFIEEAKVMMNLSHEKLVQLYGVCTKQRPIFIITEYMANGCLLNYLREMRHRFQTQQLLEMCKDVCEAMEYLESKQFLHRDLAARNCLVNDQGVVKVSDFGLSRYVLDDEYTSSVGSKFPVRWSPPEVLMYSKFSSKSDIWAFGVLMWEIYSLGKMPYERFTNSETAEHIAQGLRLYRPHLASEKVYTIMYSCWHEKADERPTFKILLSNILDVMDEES

One experiment addresses T1, Btk enzyme (His-tagged, full-length) (Homo sapiens, UniProt Q06187).
T1 construct: 5-10 nM Btk enzyme (His-tagged, full-length); His
Nature of the experiment: Bruton's Tyrosine Kinase (Btk) Inhibition Assay (33P filtration capture). It is filed as biochemical. Particulars: Bruton's tyrosine kinase Assay (Example 34); Table I pyridazinones; 100 μM ATP. An excerpt:
Bruton's Tyrosine Kinase (Btk) Inhibition Assay
The assay is a capture of radioactive ^33P phosphorylated product through filtration. The interactions of Btk, biotinylated SH2 peptide substrate (Src homology), and ATP lead to phosphorylation of the peptide substrate. Biotinylated product is bound streptavidin sepharose beads. All bound, radiolabeled products are detected by scintillation counter.
Plates assayed are 96-well polypropylene (Greiner) and 96-well 1.2 μm hydrophilic PVDF filter plates (Millipore).
IC50 determinations are calculated from 10 data points per compound utilizing data produced from a standard 96-well plate assay template. One control compound and seven unknown inhibitors were tested on each plate and each plate was run twice. […] The control compound was staurosporine. Background was counted in the absence of peptide substrate. Total activity was determined in the presence of peptide substrate. The following protocol was used to determine Btk inhibition.
1) Sample preparation: The test compounds were diluted at half-log increments in assay buffer (imidazole, glycerol-2-phosphate, EGTA, MnCl2, MgCl2, BSA).
2) Bead preparation • a.) rinse beads by centrifuging at 500 g • b.) reconstitute the beads with PBS and EDTA to produce a 20% bead slurry
3) Pre-incubate reaction mix without substrate (assay buffer, DTT, ATP, ^33P ATP) and mix with substrate (assay buffer, DTT, ATP, ^33P ATP, peptide substrate) 30° C. for 15 min.
4) To start assay, pre-incubate 10 μL Btk in enzyme buffer (imidazole, glycerol-2-phosphate, BSA) and 10 μL of test compounds for 10 min at RT.
5) Add 30 μL reaction mixture without or with substrate to Btk and compounds.
6) Incubate 50 μL total assay mix for 30 min at 30° C.
7) Transfer 40 μL of assay to 150 μL bead slurry in filter plate to stop reaction.
8) Wash filter plate after 30 min, with following steps • a. 3×250 μL NaCl • b. 3×250 μL NaCl containing 1% phosphoric acid • c. 1×250 μL H2O
9) Dry plate for 1 h at 65° C. or overnight at RT
10) Add 50 μL microscint-20 and count ^33P cpm on scintillation counter.
Calculate percent activity from raw data in cpm percent activity=(sample−bkg)/(total activity−bkg)×100
Calculate IC50 from percent activity, using one-site dose response sigmoidal model y=A+((B−A)/(1+((x/C)^D))))
The term IC50 denotes the concentration that gives 50% inhibition. Higher therefore signals lower potency. Compound `COC(=O)c1ccc(Nc2cc(-c3cccc(NC(=O)c4ccc(C(C)(C)C)cc4)c3C)nn(C)c2=O)nc1` [Compound I-9] showed an IC50 of 160 nM.

In turn, `Cc1c(NC(=O)c2ccc(C(C)(C)C)cc2)cccc1-c1cc(Nc2ccnc(S(C)(=O)=O)n2)c(=O)n(C)n1` [Compound I-13] gave an IC50 of 1060 nM.

`Cc1c(NC(=O)c2ccc(C(C)(C)O)cc2)cccc1-c1cc(Nc2ccc(C(=O)N3CCOCC3)cn2)c(=O)n(C)n1` [Compound I-15] registered an IC50 of 374 nM.

As to `Cc1c(NC(=O)c2ccc(C(C)(C)C)cc2)cccc1-c1cc(Nc2ccnc(OCC3CCNC3)n2)c(=O)n(C)n1` (stereo not shown) [Compound I-19, 4-tert-Butyl-N-(2-methyl-3-{1-methyl-6-oxo-5-[2-(pyrrolidin-3-ylmethoxy)-pyrimidin-4-ylamino]-1,6-dihydro-pyridazin-3-yl}-phenyl)-benzamide], the IC50 is 143 nM.

Take `Cc1c(NC(=O)c2ccc(C(C)(C)C)cc2)cccc1-c1cc(Nc2ccnc(N3CCC(O)C3)n2)c(=O)n(C)n1` (stereo not shown) [Compound I-22, 4-tert-Butyl-N-(3-{5-[2-(3-hydroxy-pyrrolidin-1-yl) -pyrimidin-4-ylamino]-1-methyl-6-oxo-1-6-dihydro-pyridazin-3-yl}-2-methyl-phenyl)-benzamide]: half-maximal inhibition (IC50) was put at 52 nM. This IC50 lies about 2.8-fold lower than the previous one.

In turn, `Cc1c(NC(=O)c2ccc(N(C)C)cc2)cccc1-c1cc(Nc2ccc(C(=O)N3CCC(O)CC3)cn2)c(=O)n(C)n1` [Compound I-28, 4-Dimethylamino-N-(3-{5-[5-(4-hydroxy-piperidine-1-carbonyl)-pyridin-2-ylamino]-1-methyl-6-oxo-1,6-dihydro-pyridazin-3-yl}-2-methyl-phenyl)-benzamide] registered an IC50 of 34 nM.

The compound `Cn1nc(-c2cccc(CC(=O)NCCC(O)C(C)(C)C)c2)cc(Nc2ccc(C(=O)N3CCOCC3)cn2)c1=O` (stereo not shown) [Compound I-29] showed an IC50 of 1720 nM.

Compound `Cn1nc(-c2cccc(CC(=O)N3Cc4ccccc4C3)c2)cc(Nc2ccc(C(=O)N3CCC(O)CC3)cn2)c1=O` [Compound I-31] returned an IC50 of 155 nM.

As to `Cn1nc(-c2cccc(CC(=O)c3ccc(C(C)(C)C)cc3)c2)cc(Nc2ccc(C(=O)N3CCOCC3)cn2)c1=O` [Compound I-37, 6-{3-[2-(4-tert-Butyl-phenyl)-2-oxo-ethyl]-phenyl}-2-methyl-4-[5-(morpholine-4-carbonyl)-pyridin-2-ylamino]-2H-pyridazin-3-one], half-maximal inhibition (IC50) required 206 nM. The IC50 values of the last two compounds are within 1.5-fold of each other.

As to `CC(=O)N1CCN(C(=O)Cc2cccc(-c3cc(Nc4ccc(C(=O)N5CCOCC5)cn4)c(=O)n(C)n3)c2)CC1` [Compound I-44], the IC50 was found to be 61600 nM.

`Cn1nc(-c2cccc(NC(=O)c3ccc(C4CC4)cc3)c2CO)cc(Nc2ccc(C(=O)N3CCOCC3)cn2)c1=O` [Compound I-46]: the IC50 was less than 10 nM.

The experiment is the same for the next values; noted with them: Bruton's tyrosine kinase Assay (Example 34); Table II pyridinones; 100 μM ATP.
For `CCNC(=O)Nc1cc(-c2cccc(NC(=O)c3ccc(C(C)(C)C)cc3)c2C)cn(C)c1=O` [II-5], the IC50 worked out at 13 nM.

On to `CNC(=O)Nc1cc(-c2cccc(NC(=O)c3ccc(N(C)C)nc3)c2C)cn(C)c1=O` [II-15, 6-Dimethylamino-N-{2-methyl-3-[1-methyl-5-(3-methyl-ureido)-6-oxo-1,6-dihydro-pyridin-3-yl]-phenyl}-nicotinamide], for which it took 2310 nM to reach half-maximal inhibition (IC50).

`CNC(=O)Nc1cc(-c2cccc(NC(=O)c3ccc(N4CCCCC4)nc3)c2C)cn(C)c1=O` [II-19]: the half-inhibitory concentration (IC50) amounted to 310 nM.

`CNC(=O)Nc1cc(-c2cccc(NC(=O)c3ccc4c(ccn4C)c3)c2C)cn(C)c1=O` [II-23, 1-Methyl-1H-indole-5-carboxylic acid{2-methyl-3-[1-methyl-5-(3-methyl-ureido)-6-oxo-1,6-dihydro-pyridin-3-yl]-phenyl}-amide] returned an IC50 of 9930 nM.

Regarding `CNC(=O)Nc1cc(-c2cccc(NC(=O)c3ccc(C(C)(C)C)cc3)c2)cn(C)c1=O` [II-27], the IC50 turned out to be 131 nM. This IC50 lies about 76-fold lower than the previous one.

In turn, `CNC(=O)Nc1cc(-c2cccc(NC(=O)c3ccc(C(C)(C)O)cc3)c2C)cn(C)c1=O` [II-28, 4-(1-Hydroxy-1-methyl-ethyl)-N-{2-methyl-3-[1-methyl-5-(3-methyl-ureido)-6-oxo-1,6-dihydro-pyridin-3-yl]-phenyl}-benzamide] gave an IC50 of 230 nM.

On to `CNC(=O)Nc1cc(-c2cccc(CC(=O)N3Cc4cc(Cl)c(Cl)cc4C3)c2)cn(C)c1=O` [II-31], for which the IC50 worked out at 14800 nM.

For `CNC(=O)Nc1cc(-c2cccc(NC(=O)c3ccc(C(C)(C)C#N)cc3)c2C)cn(C)c1=O` [II-42, 4-(Cyano-dimethyl-methyl)-N-{2-methyl-3-[1-methyl-5-(3-methyl-ureido)-6-oxo-1,6-dihydro-pyridin-3-yl]-phenyl}-benzamide], inhibition was half-maximal at 681 nM (IC50). Compared with the last compound, the IC50 is about 22-fold lower.

Consider `CNC(=O)Nc1cc(-c2cccc(CC(=O)N3Cc4ccc(F)cc4C3)c2)cn(C)c1=O` [II-46], for which the midpoint of inhibition, the IC50, lay at 3440 nM.

Turning to `CN(C)c1ccc(C(=O)Nc2cccc(-c3cc(Nc4ccc(C(=O)N5CCOCC5)cn4)c(=O)n(C)c3)c2CO)cc1` [II-49, 4-Dimethylamino-N-(2-hydroxymethyl-3-{1-methyl-5-[5-(morpholine-4-carbonyl)-pyridin-2-ylamino]-6-oxo-1,6-dihydro-pyridin-3-yl}-phenyl)-benzamide], the IC50 was less than 10 nM.

For the compound `Cn1cc(-c2cccc(NC(=O)c3ccc(C(C)(C)F)cc3)c2CO)cc(Nc2ccc(C(=O)N3CCOCC3)cn2)c1=O` [II-52], the IC50 was less than 10 nM.

For the compound `C[C@H](O)CNC(=O)Nc1cc(-c2cccc(NC(=O)c3ccc(C4CC4)cc3)c2CO)cn(C)c1=O` [II-54], the IC50 is 68 nM.

Turning to `Cn1cc(-c2cccc(NC(=O)c3ccc(C(F)(F)F)cc3)c2CO)cc(Nc2ccc(C(=O)N3CCOCC3)cn2)c1=O` [II-55], the IC50 was determined as 85 nM.

`CN(C)c1ccc(C(=O)Nc2cccc(-c3cc(Nc4ccccn4)c(=O)n(C)c3)c2CO)cc1` [II-59] displayed an IC50 of 20 nM.

Compound `CN(C)c1ccc(C(=O)Nc2cccc(-c3cc(Nc4ccc(C(=O)N5CCC(N(C)C)CC5)cn4)c(=O)n(C)c3)c2CO)cc1` [II-60] displayed an IC50 of less than 10 nM.

Compound `Cn1cc(-c2cccc(NC(=O)c3ccc(Br)cc3)c2CO)cc(Nc2ccc(C(=O)N3CCOCC3)cn2)c1=O` [II-63] came in with an IC50 of 31 nM.

Take `Cn1cc(-c2cccc(NC(=O)c3ccc(C4(F)CC4)cc3)c2CO)cc(Nc2ccccn2)c1=O` [II-64]: the IC50 was determined as 50 nM.

In turn, `CCNC(=O)Nc1cc(-c2cccc(NC(=O)c3ccc(C4(F)CC4)cc3)c2CO)cn(C)c1=O` [II-65] returned a half-inhibitory concentration (IC50) of 15 nM.

The compound `COC(C)(C)c1ccc(C(=O)Nc2cccc(-c3cc(Nc4ccc(C(=O)N5CCOCC5)cn4)c(=O)n(C)c3)c2CO)cc1` [II-66] displayed an IC50 of 24 nM. Against the preceding compound, the IC50 is about 1.6-fold higher.

Regarding `Cn1cc(-c2cccc(NC(=O)c3ccccc3)c2CO)cc(Nc2ccc(C(=O)N3CCOCC3)cn2)c1=O` [II-67], the IC50 was found to be 770 nM.

In the case of `Cn1cc(-c2cccc(NC(=O)c3ccc(C(F)(C(F)(F)F)C(F)(F)F)cc3)c2CO)cc(Nc2ccc(C(=O)N3CCOCC3)cn2)c1=O` [II-68], inhibition was half-maximal at 71 nM (IC50).

Turning to `C#Cc1ccc(C(=O)Nc2cccc(-c3cc(Nc4ccc(C(=O)N5CCOCC5)cn4)c(=O)n(C)c3)c2CO)cc1` [II-69], 76 nM corresponded to half-maximal inhibition (IC50).

In turn, `Cn1cc(-c2cccc(NC(=O)c3ccc4c(c3)OCC4(C)C)c2CO)cc(Nc2ccc(C(=O)N3CCOCC3)cn2)c1=O` [II-71, 3,3-Dimethyl-2,3-dihydro-benzofuran-6-carboxylic acid (2-hydroxymethyl-3-{1-methyl-5-[5-(morpholine-4-carbonyl)-pyridin-2-ylamino]-6-oxo-1,6-dihydro-pyridin-3-yl}-phenyl)-amide] displayed an IC50 of less than 10 nM.
